These results are taken from patent publication US10052320B2, “Substituted quinoxalines as FGFR kinase inhibitors” (ASTEX THERAPEUTICS LIMITED, priority 2011, dated 2018).

This assay has as its system Ba/F3-KDR-transfected cells in the presence of 10 ng/ml murine IL3. Put plainly: Ba/F3-KDR (plus IL3) cellular proliferation counterscreen, Alamar Blue. It counts as cell-based. The note with it: plus 10 ng/ml murine IL3; for IC50: Mus musculus. Here is the method: Ba/F3-KDR (Minus IL3 or Plus IL3) (Cellular Proliferation Assay)
[…] Cells were put in an incubator at 37° C. and 5% CO2. After 24 hours, 10 μl of Alamar Blue solution (0.5 mM K3Fe(CN)6, 0.5 mM KaFe(CN)6, 0.15 mM Resazurin and 100 mM Phosphate Buffer) was added to the wells, incubated for 4 hours at 37° C. and 5% CO2 before RFU's (Relative Fluorescence Units) (ex. 540 nm., em. 590 nm.) were measured in a flurorescence plate reader.
As a counterscreen the same experiment was performed in the presence of 10 ng/ml murine IL3.
In a 96 well plate, 180 μl cell culture medium (phenol red free RPMI-1640, 10% FBS, 2 mM L-Glutamine and 50 μg/ml Gentamycin) containing 10000 cells per well of Ba/F3-KDR-transfected cells were pipette and 20 μl of compound dilution in DMSO was added. Cells were put in an incubator at 37° C. and 5% CO2. After 24 hours, 40 μl of Alamar Blue solution (0.5 mM K3Fe(CN)6, 0.5 mM KaFe(CN)6, 0.15 mM Resazurin and 100 mM Phosphate Buffer) was added to the wells, incubated for 4 hours at 37° C. and 5% CO2 RFU's (Relative Fluorescence Units) (ex. 540 nm., em. 590 nm.) were measured in a flurorescence plate reader.
In general terms: Counterscreens check selectivity or assay interference.

Setting [1] is: read-out: BAF3-KDR (PLUS IL3) 96 well pIC50 (converted).
[2] abbreviates: read-out: BAF3-KDR (PLUS IL3) 384 well pIC50 (converted).

Where two headings read alike, the source gives them in different places. Bounds are passed on as bounds.

Consider `COc1cc(OC)cc(N(CC2CC2)c2ccc3ncc(-n4cncn4)nc3c2)c1` [Compound 50], for which the IC50 is more than 10 µM under setting [1] and more than 10 µM under setting [2].
Take `COc1cc(OC)cc(N(CCO)c2ccc3ncc(-c4cccnc4)nc3c2)c1` [Compound 9]: the IC50 under setting [2] is more than 10 µM.
With `COc1cc(OC)cc(N(CCCNCC(F)(F)F)c2ccc3ncc(-c4ccc(N(C)C(=O)OC(C)(C)C)nc4)nc3c2)c1` [Compound 127], the IC50 under setting [2] was more than 10 µM.
Take `COCCN(c1cc(OC)cc(OC)c1)c1ccc2ncc(-c3ccn(C)c3)nc2c1` [Compound 6]: the IC50 under setting [2] was more than 10 µM.
With `COc1cc(OC)cc(N(Cc2cccc(CN)n2)c2ccc3ncc(-c4ccc(N)nc4)nc3c2)c1` [Compound 51], under setting [2], the IC50 was more than 10 µM.
As to `COc1cc(OC)cc(N(CC2CC2)c2ccc3ncc(Nc4cnn(C)c4)nc3c2)c1` [Compound 61], the IC50 under setting [2] was more than 10 µM.
For the compound `COc1cc(OC)cc(N(CCCO)c2ccc3ncc(-c4ccnc(NC(=O)OC(C)(C)C)c4)nc3c2)c1` [Compound 128], the IC50 under setting [2] is more than 10 µM.
With `COc1cc(OC)cc(N(CC2CC2)c2ccc3ncc(-c4cn(CCO)nn4)nc3c2)c1` [Compound 40], the IC50 runs as follows: under setting [1], more than 10 µM; under setting [2], more than 10 µM.
`COc1cc(OC)cc(N(CCCO)c2ccc3ncc(-c4ccc(F)nc4)nc3c2)c1` [Compound 117]: the IC50 under setting [2] is more than 10 µM.
For `COc1cc(OC)cc(N(CC(O)C(F)(F)F)c2ccc3ncc(-c4cccnc4)nc3c2)c1` (single isomer, unassigned) [Compound 54], the “BAF3-KDR (PLUS IL3) 384 well pIC50” value was less than 5.
As for `CNc1ccc(-c2cnc3ccc(N(CCCO)c4cc(OC)cc(OC)c4)cc3n2)cn1` [Compound 116], the IC50 under setting [2] was more than 10 µM.
For the compound `COc1cc(OC)cc(N(CC(O)CO)c2ccc3ncc(-c4ccc(N)nc4)nc3c2)c1` (centres unmarked) [Compound 74], the IC50 under setting [2] was more than 10 µM.
On to `COc1cc(OC)cc(N(CC2CC2)c2ccc3ncc(-c4cnn(C)n4)nc3c2)c1` [Compound 70], for which the IC50 under setting [1] was more than 10 µM and the IC50 under setting [2] is more than 10 µM.
On to `COc1cc(OC)cc(N(CC2CC2)c2ccc3ncc(-n4cnc(C)c4)nc3c2)c1` [Compound 30], for which the IC50 runs as follows: under setting [1], more than 10 µM; under setting [2], more than 10 µM.
Turning to `COc1cc(OC)cc(N(CCCO)c2ccc3ncc(-c4cccnc4)nc3c2)c1` [Compound 112], the IC50 under setting [2] is more than 10 µM.
On the same count and under the same terms, for `COc1cc(OC)cc(N(CCO)c2ccc3ncc(-c4ccnc(C(=O)NCCCN)c4)nc3c2)c1` [Compound 123] the value was more than 10 µM.
On to `COc1cc(OC)cc(N(CC2CC2)c2ccc3ncc(-c4ccnn4C)nc3c2)c1` [Compound 18], for which the IC50 under setting [2] was more than 10 µM.
In the case of `COCCCN(c1cc(OC)cc(OC)c1)c1ccc2ncc(-c3ccn(C)c3)nc2c1` [Compound 3], the IC50 under setting [2] was more than 10 µM.
Regarding `COc1cc(OC)cc(N(CC2CC2)c2ccc3ncc(-c4ocnc4C)nc3c2)c1` [Compound 104], the IC50 under setting [2] was more than 10 µM.
As for `COc1cc(OC)cc(N(CC(OC(C)=O)C(F)(F)F)c2ccc3ncc(-c4cccnc4)nc3c2)c1` (single isomer, unassigned) [Compound 75], the “BAF3-KDR (PLUS IL3) 384 well pIC50” value was less than 5.
For `COc1cc(OC)cc(N(CCCO)c2ccc3ncc(-c4ccc(N5CCOCC5)nc4)nc3c2)c1` [Compound 124], the IC50 under setting [2] is more than 10 µM.
Take `COc1cc(OC)cc(N(CC2CC2)c2ccc3ncc(-c4ccn(CCO)c4)nc3c2)c1` [Compound 56]: the IC50 under setting [1] is more than 10 µM and the IC50 under setting [2] is more than 10 µM.
Turning to `COc1cc(OC)cc(N(CCO)c2ccc3ncc(-c4ccncc4)nc3c2)c1` [Compound 11], the IC50 under setting [2] is more than 10 µM.
Consider `COc1cc(OC)cc(N(CC2CC2)c2ccc3ncc(-c4cn(C)nn4)nc3c2)c1` [Compound 71], for which the IC50 reads like this: under setting [1], more than 10 µM; under setting [2], more than 10 µM.
In the case of `COc1cc(OC)cc(N(CCO)c2ccc3ncc(-c4ccc(OC)nc4)nc3c2)c1` [Compound 111], under setting [2], the IC50 is more than 10 µM.
The same measure, in the same setting: for `COc1cc(OC)cc(N(CCCO)c2ccc3ncc(-c4ccc(N5CCNCC5)nc4)nc3c2)c1` [Compound 48] the value was 5.25 µM.
Consider `COc1cc(OC)cc(N(CC2CC2)c2ccc3ncc(-c4nnnn4C)nc3c2)c1` [Compound 83], for which the IC50 reads like this: under setting [1], more than 10 µM; under setting [2], more than 10 µM.
As for `COc1cc(OC)cc(N(CCNC(C)C)c2ccc3ncc(-c4ccncc4)nc3c2)c1` [Compound 12], under setting [2], the IC50 was more than 10 µM.
